Data from patent publication US20250009924A1, “Indane Derivatives for Malodor Counteraction” (Firmenich SA, priority 2015, published 2025).

Tests used:
[1] = Binary mixtures of lily-of-the-valley odorants with malodor, perception of fecal and animal note; details: the fecal and animal note remains clearly perceptible
[2] = system: Skatole OSNs (olfactory sensory neurons); assay: Ca2+ imaging of olfactory sensory neurons, antagonist screening against skatole; format: cell-based; details: 50 μM skatole + 250 μM MOC compound as binary mixture; percentage of malodor-responsive OSN population inhibited by more than 10%
Protocol: (§1) Identification of malodor-sensitive olfactory neurons was performed as previously described in WO 2014/210582. Identification of antagonist compounds that inhibit the response of malodor-sensitive olfactory neurons to the target malodor was performed according to Kajiya et al (2001) (K. Kajiya, et al in The Journal of Neuroscience, (2001) 21, 6018-6025).
(§2) Olfactory sensory neurons were stimulated with 25 μM indole (MO) and 125 μM MOC either alone or as a binary mixture. By comparing the peak value of the calcium-induced fluorescence ratio change induced by exposure to the target MO compound to that of the mixture of MO+MOC candidate, a “modulation value” was calculated. The larger the difference between the two peak values, the greater the magnitude of the modulation value. If the peak value for the MO was larger than that of the MO+MOC, the modulation value was negative, whilst the inverse produced positive modulation values. A modulation value was calculated for each cell responding to the positive-control stimulus forskolin (Pos) and the MO compound, but not to the negative-control buffer stimulus (Neg). For each candidate MOC compound, a baseline ‘modulation value’ was obtained by repeated stimulations of olfactory neurons with indole alone (left box plot in B, D, F). The percentage of target malodor-responsive cells with negative modulation values less than −10% was plotted on a bar chart. Population data are represented as box plots, where the interquartile range (25-75th percentiles) of olfactory sensory neuron modulation is contained within the box, with the median indicated by the black bar and the 95th percentile by the arms.
Olfactory sensory neurons were stimulated with 50 μM skatole malodor and 250 μM candidate MOC compound as a binary mixture.

[3] = system: DMTS OSNs (olfactory sensory neurons); assay: Ca2+ imaging of olfactory sensory neurons, antagonist screening against dimethyl trisulfide (DMTS); format: cell-based; details: 50 μM DMTS + 250 μM MOC compound as binary mixture; percentage of malodor-responsive OSN population inhibited by more than 10%
Protocol: as §1, §2
Olfactory sensory neurons were stimulated with 50 μM DMTS malodor and 250 μM candidate MOC compound as a binary mixture.

[4] = system: indole-responsive olfactory sensory neurons; assay: Ca2+ imaging of olfactory sensory neurons, antagonist screening against indole; format: cell-based; details: 25 μM indole + 125 μM MOC compound as binary mixture; percentage of malodor-responsive OSN population inhibited by more than 10% (modulation values less than −10%)
Protocol: as §1, §2
Olfactory sensory neurons were stimulated with 25 μM indole malodor and 125 μM candidate MOC compound as a binary mixture.

[5] = Air dilution olfactometry sensory panel, indole vs indole + compound; format: in vivo, human; parameters: key to Freshness score: linear labeled scale, no freshness to very fresh; key to Animal/Fecal/Tar score: linear labeled scale, no to very animal/fecal/tar; key to Pleasantness score: linear labeled scale, very unpleasant to very pleasant; details: for Freshness score / Pleasantness score / Animal/Fecal/Tar score: indole + compound at individualized iso-intense concentrations; for Freshness score: indole alone 2.2 ± 0.2; for Pleasantness score: indole alone 2.6 ± 0.2; for Animal/Fecal/Tar score: linear labeled scale, indole alone 6.9 ± 0.2; for Animal/Fecal/Tar Reduction: indole + compound vs indole alone, iso-intense levels
Protocol: Air dilution olfactometry was used to measure all psychophysical data of individual and mixed odorants. Odorized flows of air with precisely set concentrations were prepared by the evaporation of a known flux of odorant in a determined flow of air. The flux of odorant was delivered through a microsyringe operated by a calibrated micromotor into a heated vessel under a steady nitrogen flow. The odorant was vaporized and swept away by the nitrogen, and this primary flow was later diluted with humidified air to the desired concentration. Odorants can be presented one by one in olfactometers (see as a reference “Multidimensional visualization of physical and perceptual data leading to a creative approach in fragrance development”, C. Vuilleumier, M. van de Waal, H. Fontannaz, I. Cayeux and P. A. Rebetez, in Perfumer & Flavourist, 33, 55 (2008)); alternatively, a machine blending up to 12 flows of odorants in variable and adjustable proportions could be used. A sniffing outlet delivered a continuous and adjustable odorized air flow. The upper working limit was determined by the vapor pressure of the odorants at room temperature. The odorized flow was delivered at a temperature of 26° C., close to the temperature within the nose. The combination of air (540 l/h) and nitrogen (60 l/h) represented a total gas flow of 600 l/h with a relative humidity of 50%. The speed of injection of the solutions in the evaporation chamber was modulated and controlled for each subject and adjusted to obtain a medium perceived intensity (see above reference, for instance FIG. 4).
Standardized psychophysical procedures were used to determine olfactory detection thresholds (triangle testing) or perceived intensity, after a training period (see above reference).
A method was designed as an iterative process to obtain dose-response relationship and odor detection threshold of perfumery ingredients or malodorants with a minimum number of experiments (see FIG. 5 in the above reference).
FIG. 2 reports the radar plot of indole alone and indole+compound 1 obtained with a panel of 13 persons using a sensory protocol to evaluate the potential antagonists versus indole. The protocol involves two steps: • Step 1: the participants evaluated the tested ingredients and indole independently to adjust their individualized concentrations by changing the rate of injection (see above description and reference) to elicit a medium intensity perception for each chemical. These concentrations, corresponding to iso-intense levels, were applied in the second step of the process. The range of concentrations to be submitted to subjects was determined from dose-response relationships for the selected ingredients and indole. In the present experiment the molar ratio Compound 1/indole varied according to the individuals from about 1/1 to 10/1 (typical preferred individual range is between 2.5/1 and 4.5/1). • Step 2: Blind sensory evaluations were set; no information was disclosed to the participants on the submitted odorous stimuli. The subjects had to evaluate first indole alone at its individualized concentration and rate the following three descriptors on a linear labeled scale: • Pleasantness (From «Very unpleasant» to «Very pleasant») • Freshness (From «No Freshness» to «Very fresh») • Malodor character: Animal/Fecal/Tar (From «No . . . » to «Very . . . »)
The next submission, 30 seconds after the previous one to avoid odor adaptation, involved the simultaneous injection of indole and of the tested ingredient at individualized concentrations. The same descriptors were rated.

Compound	Proportion of Indole OSNs [4]	Freshness score [5]	Pleasantness score [5]	Animal/Fecal/Tar score [5]	Animal/Fecal/Tar Reduction [5]	further results
CC1(C)CCc2ccc(CCC=O)cc21 [3-(3,3-dimethyl-2,3-dihydro-1h-inden-5-yl)propanal]						malodor reduction (reduction of the negative odor character) [1]: fail to produce such malodor reduction
CC(C=O)Cc1ccc(C(C)(C)C)cc1 (stereo not drawn) [3-(4-tert-butylphenyl)-2-methylpropanal]						malodor reduction (reduction of the negative odor character) [1]: fail to produce such malodor reduction
CC(C)(C)c1ccc(CCC=O)cc1 [3-(4-tert-butylphenyl)propanal]						malodor reduction (reduction of the negative odor character) [1]: fail to produce such malodor reduction
Cc1ccc2c(c1)CC(C)(CO)C2 (stereo not drawn) [Compound 1, 2,5-dimethyl-2-indanemethanol]	56%	6.7 ± 0.9	7.8 ± 0.7	1.3 ± 0.5	81 percentage	Proportion of Skatole OSNs [2]: 82%; Proportion of DTMS OSNs [3]: 69%
COCC1(C)Cc2ccc(C)cc2C1 (stereo not drawn) [Compound 2, (2,5-dimethyl-2,3-dihydro-1H-inden-2-yl)methyl methyl ether]	43%	4.7 ± 1.3	3.9 ± 0.8	3.5 ± 1.5	50 percentage	
CC1(CO)Cc2ccccc2C1 [Compound 3, (2-methyl-2,3-dihydro-1H-inden-2-yl)methanol]	41%	5.2 ± 1.5	6.0 ± 1.4	3.1 ± 1.3	55 percentage	
Cc1ccc2c(c1)CC(CO)C2 (stereo not drawn) [Compound 4, (5-methyl-2,3-dihydro-1H-inden-2-yl)methanol]	41%	6.6 ± 1.5	7.2 ± 1.2	2.1 ± 1.1	70 percentage	
CC(=O)OCC1(C)Cc2ccccc2C1 [Compound 5, (2-methyl-2,3-dihydro-1H-inden-2-yl)methyl acetate]	77%	5.2 ± 1.2	5.7 ± 1.1	2.7 ± 1.0	61 percentage	Proportion of Skatole OSNs [2]: 87%; Proportion of DTMS OSNs [3]: 82%
CC(=O)C1(C)Cc2ccc(C)cc2C1 (stereo not drawn) [Compound 6, 1-(2,5-dimethyl-2,3-dihydro-1H-inden-2-yl)ethanone]	69%	5.2 ± 1.6	5.8 ± 1.4	2.2 ± 1.2	68 percentage	Proportion of Skatole OSNs [2]: 92%; Proportion of DTMS OSNs [3]: 94%
Cc1ccc2c(c1)CCC(C)(CO)C2 (stereo not drawn) [Compound 7, (2,6-dimethyl-1,2,3,4-tetrahydro-2-naphthalenyl)methanol]	54%					
CCc1ccc2c(c1)CC(C)(CO)C2 (stereo not drawn) [Compound 8, 5-ethyl-2-methyl-2-indanmethanol]	30%					
Cc1ccc2c(c1C)CC(C)(CO)C2 (stereo not drawn) [Compound 9, (2,4,5-trimethyl-2,3-dihydro-1H-inden-2-yl)methanol]	78%					
CC(=O)OCC1(C)Cc2ccc(C)cc2C1 (stereo not drawn) [Compound 10, (2,5-dimethyl-2-indanyl)methyl acetate]	42%					
CCC1(CO)Cc2ccc(C)cc2C1 (stereo not drawn) [Compound 11, 2-ethyl-5-methyl-2-indanmethanol]	35%					
CC(C)c1ccc2c(c1)CC(C)(CO)C2 (stereo not drawn) [Compound 12, 5-isopropyl-2-methyl-2-indanmethanol]	57%					
CC1(CO)Cc2ccc(C(C)(C)C)cc2C1 (stereo not drawn) [Compound 13, 5-tert-butyl-2-methyl-2-indanmethanol]	54%					
Cc1cc2c(cc1C)CC(C)(CO)C2 [Compound 14, 2,5,6-trimethyl-2-indanmethanol]	20%					
Cc1cccc2c1CC(C)(CO)C2 (stereo not drawn) [Compound 15, 2,4-dimethyl-2-indanmethanol]	17%					
Cc1cc(C)c2c(c1)CC(C)(CO)C2 (stereo not drawn) [Compound 16, (2,4,6-trimethyl-2,3-dihydro-1H-inden-2-yl)methanol]	14%	6.2 ± 1.6	6.4 ± 1.3	2.6 ± 1.4	62 percentage	
COc1ccc2c(c1)CC(C)(CO)C2 (stereo not drawn) [Compound 17, (5-methoxy-2-methyl-2,3-dihydro-1H-inden-2-yl)methanol]	23%					
